Measured values reported in patent publication US4987125A, “Antithrombotic activity of the triterpenoids of ilex pubescens and the conversion method of the triterpenoids of ilex pubescens having no antithrombotic activity into the triterpenoids having antithrombotic activity” (Cheil Sugar & Co., Ltd., priority 1988, dated 1991).
Entries after “also recorded” stand apart in the source; their conditions may differ.

How the values were obtained:
[1] = tested on: Malondialdehyde (MDA) produced by platelet; assay: Inhibition of malondialdehyde (MDA) generation by thrombin-stimulated platelets (TBA method); format: cell-based, rats (Male Sprague-Dawley); details: rat platelet
Protocol: A platelet is agglutinated by the stimulus on thrombin. TXA2 is released by this stimulation, and it accelerated the agglutination of the platelet. And the malondialdehyde(MDA) is released with TXA2 . It is conducted whether the extract of the Ilex pubescens inhibits the production of MDA (Determination of Melondialdehyde) or not by the colorimetry method. As the extraction solvent, methanol, butanol and water are used. […] Their structures are as follows:
Male Sprague-Dawley rats, weightin 180-200 g, were used in experiment. Blood was collected by the same method with (test 1-2). 100 sample was let stand for 20 minutes, in polypropylene tube. It was centrifuged (1400 r.p.m. for 20 minutes) at 10° C. to obtain platelet rich plasma (PRP). PRP was recentrifuged (2800 r.m.p., for 20 minutes) at 10° C. to obtain precipitated platelet pellet. Platelet was suspended in 0.01 M of pH 7.4 phosphate buffer (1×10^9 cell/ml). To the platelet suspension, 100 µl of methanol extracts of Ilex pubescens was added and the reaction mixture was preincubated in thermostat of 37° C. for 20 minutes. 50 µl of thrombin (10 U) was then added to agglutinate the platelet, and thiobarbituric acid (TBA) was added as the couple. This reaction mixture was extracted by 2 ml of n-butanol and the n-butanol phase was separated by centrifugation (1200 r.p.m. for 10 minutes) at 30° C. The absorbance of n-butanol phase was observed by UV-spectrophotometer at 534 nm.
1 kg of root of Ilex pubescens was powdered and the powder of Ilex pubescens was extracted 4 times with each 500 ml of 70% methanol by heating in water bath. […] 12 g of methanol extract was suspended in the small amount of water and extracted with butanol several times. […] 12 g of methanol extract of Ilex pubescens, 4.1 g of butanol fraction and 6 g of water fraction were dissolved to 20 ml of methanol solutions, respectively. 1m1 of each solution was taken in test tube and methanol was removed under nitrogen atmosphere. Residue was suspended in 1m1 of 0.01 M phosphate buffer. 0.1 ml of suspension was used as sample.
*1 ml of washed platelet (1 × 10^9 cells/ml) of rats was
preincubated (37° C. for 30 minutes) with 0.1 ml of sample in 0.01
M phosphate buffer (pH 7.4, in normal saline). Then, to the agglutinated
platelet, 50 μl of bovine thrombin (10 U) was added.
**MDA was determined by the method of TBA. Each value is the mean of 2
Therefore, 4.1 g of butanol fraction was dissolved in 10 ml of methanol and chromatographed on Sephadex LH-20 column (Sigma Co., 3.8×66 cm) with methanol as eluant. After the first eluate (260 ml) corresponding to the void volume of the column was eluted, the eluate was collected in test tubes at the volume of 21ml. 12 fractions were obtained.
Each fraction was dissolved in 10 ml of methanol and 0.5 ml of methanol solution was taken. The solvent was evaporated under nitrogen atmosphere. The residue was suspended in 1m1 of 0.01 M phosphate buffer and 0.1m1 was used as sample. Inhibition of MDA generation was measured by the same method with Test 2-1).
*4.1 g of butanol extract was chromatographed on Sephadex LH20 column (3,
× 66 cm) with methanol as eluant.
**Each fraction was dissolved in 10 ml of methanol and 0.5 ml of solution

thromboxane synthase = details: known property; cited from earlier work

Row | Compound | inhibition of MDA generation, result in words [1] | also measured
1 | CC1CCC2(C(=O)O)CCC3(C)C(=CCC4C5(C)CCC(O)C(C)(C(=O)O)C5CCC43C)C2C1(C)O (stereo not drawn) [Pubescenic acid] | inhibits MDA production | IC50 (concentration inhibiting 50% of MDA generation) ([1]; isolated components, imidazole as control): 0.41 mg
2 | C[C@H]1CC[C@]2(C(=O)O[C@@H]3O[C@H](CO)[C@@H](O)[C@H](O)[C@H]3O)CC[C@]3(C)C(=CC[C@@H]4[C@@]5(C)CC[C@H](O[C@@H]6OC[C@@H](O)[C@H](O)[C@H]6O[C@@H]6O[C@H](CO)[C@@H](O)[C@H](O)[C@H]6O)C(C)(C)[C@@H]5CC[C@]43C)[C@@H]2[C@]1(C)O [Ilexoside K] | had no effect; also recorded: ineffective | 
3 | C[C@@H]1O[C@@H](O[C@H]2[C@H](O[C@H]3[C@H](O[C@H]4CC[C@]5(C)[C@H]6CC=C7[C@H]8[C@](C(=O)O[C@@H]9O[C@H](CO)[C@@H](O)[C@H](O)[C@H]9O)(CC[C@H](C)[C@@]8(C)O)CC[C@@]7(C)[C@]6(C)CC[C@H]5C4(C)C)OC[C@@H](O)[C@@H]3O)O[C@H](CO)[C@@H](O)[C@@H]2O)[C@H](O)[C@H](O)[C@H]1O [Ilexoside O] | exhibited no effect | inhibition of MDA generation, result in words ([1]; listed as ilexoside O): ineffective
4 | C[C@H]1CC[C@]2(C(=O)O)CC[C@]3(C)C(=CC[C@@H]4[C@@]5(C)CC[C@H](O[C@@H]6OC[C@@H](O)[C@H](O)[C@H]6O[C@@H]6O[C@H](CO)[C@@H](O)[C@H](O)[C@H]6O)C(C)(C)[C@@H]5CC[C@]43C)[C@@H]2[C@]1(C)O [Ilexoside D] | exhibited the greatest antithrombic activity | inhibition of MDA generation, result in words ([1]; listed as ilexoside D): effective; also recorded: inhibits MDA production
5 | Prosapogenin A | did not inhibit MDA generation | 
6 | c1c[nH]cn1 [Imidazole] |  | inhibition of thromboxane synthase, in words (thromboxane synthase): known as the inhibitor of thromboxane synthase
